Data: patent US20070203220A1, “Inhibitors Of PAI-1 For Treatment Of Muscular Conditions” (Wyeth, priority 2006, published 2007)

Assays:
mdx mice = test: mdx mouse model of muscular dystrophy, drug in rodent chow for 9 months, muscle and body weights; format: in vivo; settings: female mdx mice
Source text: The mdx mouse is a genetic model of Duchenne and Becker muscular dystrophies, providing a model system of muscle degeneration with aberrant regeneration. In this model, a nonsense mutation in the dystrophin gene results in the absence of dystrophin from the sarcolemma, and subsequent muscle fiber necrosis. Conversely, mice deficient in plasminogen activator inhibitor-1 have improved skeletal muscle regeneration. It was hypothesized that a small molecule PAI-1 inhibitor, such as, for example {1-Benzyl-5-[4-(trifluoromethoxy)phenyl]-1H-indol-3-yl}(oxo)acetic acid could potentially produce beneficial effects on the skeletal muscle of mdx mice.
Female mdx mice were purchased from a commercial vendor, and divided into 2 groups of equal body weight. {1-Benzyl-5-[4-(trifluoromethoxy)phenyl]-1H-indol-3-yl}(oxo)acetic acid was formulated into rodent chow at a concentration of 1 mg of drug per 1 gram of food (1 mg/g), and this mixture was formed into food pellets. A standard, pelleted rodent chow was used as the control diet. One group of mice received the drug-containing diet, while the other group received the control diet ad libitum. Each diet was coded, and the animal technicians remained blinded to the composition of the diets throughout the study.
Eight mice received either the control or drug-containing diet for 9 months. At the end of the study, the mice were killed, and muscle and body weights were measured. There was no change in body weight between groups (28.1±0.45 g for drug-treated vs. 28.3±0.69 g for Control). […] Because muscular dystrophy is a wasting disease, changes in muscle weight are routinely expressed per unit of body weight in preclinical studies. Therefore, the individual weight of each gastrocnemius muscle (mg) was expressed relative to total body weight (g). […] In drug-treated mice, muscle weight per unit of body weight was 5.02±0.13 mg/g, while in mice on the control diet, this value was 4.56 mg/g±0.20 (p=0.07).

Cc1ccc(Cn2cc(C(=O)C(=O)O)c3cc(-c4ccccc4)ccc32)cc1
melting point: 195 to 196 °C

Cn1cc(C(=O)C(=O)O)c2ccc(-c3ccc(OC(F)(F)F)cc3)cc21
melting point: 233 to 235 °C (dec.)

O=C(O)C(=O)c1cn(Cc2ccccc2)c2ccc(-c3ccc(OC(F)(F)F)cc3)cc12 [{1-Benzyl-5-[4-(trifluoromethoxy)phenyl]-1H-indol-3-yl}(oxo)acetic acid]
difference in group means of gastrocnemius muscle weight, drug-treated vs control (mdx mice; drug in chow 1 mg/g): 8.6% | muscle weight per unit of body weight (gastrocnemius) (mdx mice; drug in chow 1 mg/g ad libitum, p=0.07 vs control): 5.02 ± 0.13 mg/g | gastrocnemius muscle weight (mdx mice; drug in chow 1 mg/g ad libitum, p=0.11 vs control): 141.0 ± 4.1 mg

CC(=O)c1ccc(-c2ccc3c(c2)c(C(=O)C(=O)O)cn3Cc2ccccc2)cc1
melting point: 213 to 214 °C (dec.)
